According to patent publication US11000033B2, “Ketone or oxime compound, and herbicide” (NISSAN CHEMICAL CORPORATION, priority 2014, dated 2021):

Tests used:
Type in all cases: in vivo
Amaranthus retroflexus = test: Test Example 4: herbicidal effect by soil treatment (symbol N); settings: application herbicide amount 320 g/ha
How it was run: (§1)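 Seeds were sown in sterilized diluvial soil, covered with about 1.5 cm of soil, and the soil surface was sprayed with a water-diluted emulsion of the compound at a predetermined rate. Plants grew in a greenhouse at 25° C. to 30° C.; effects were scored visually 3 weeks after application.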

beet [1] = test: Test Example 4: effect on crop by soil treatment (symbol f); settings: application herbicide amount 320 g/ha
How it was run: (§2)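 The test used sterilized diluvial soil. Seed was set down in spots and overlaid with about 1.5 cm of soil before growth in a greenhouse kept at 25° C. to 30° C.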

[2] = tested on: Echinochloa crus-galli var. crus-galli; test: Test Example 4: herbicidal effect by soil treatment (symbol H); settings: application herbicide amount 320 g/ha
How it was run: as §1

wheat = test: Test Example 4: effect on crop by soil treatment (symbol e); settings: application herbicide amount 320 g/ha
How it was run: as §2

Setaria viridis = test: Test Example 5: herbicidal effect by foliage application, plastic box (symbol G); settings: 320 g/ha, 3 weeks after application
How it was run: (§3)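 After sowing into sterilized diluvial soil and growing two weeks under glass at 25° C. to 30° C., seedlings receive a uniform foliar spray of diluted emulsion. Damage is judged visually three weeks on.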

Scirpus juncoides [3] = test: Test Example 1: herbicidal activity, application before weed generation in submerged conditions (symbol B); settings: application herbicide amount 320 g/ha
How it was run: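 Paddy pre-emergence test. Formulated emulsion, water-diluted to a predetermined rate, is applied to floodwater on sowing day; rice transplanted at 2.5 leaves. Effect read at 3 weeks on a 0–5 herbicidal-ratio scale.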

rapeseed = test: Test Example 4: effect on crop by soil treatment (symbol g); settings: application herbicide amount 320 g/ha
How it was run: as §2

Avena fatua [4] = test: Test Example 5: herbicidal effect by foliage application, plastic box (symbol I); settings: 320 g/ha, 3 weeks after application
How it was run: as §3

Scirpus juncoides [5] = test: Test Example 2: herbicidal activity, application during weed generation in submerged conditions (symbol B); settings: Table 23; application herbicide amount 320 g/ha; grade 0-5 by criteria of Test Example 1
How it was run: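 Compound was applied as a water-diluted emulsion into the standing water of flooded pots (4 cm) once co-sown weeds reached one to two leaves. Greenhouse temperature was 25° C. to 30° C., soil was alluvial, and each species was rated visually after 3 weeks.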

soybean = test: Test Example 5: effect on crop by foliage application, plastic box (symbol d); settings: 320 g/ha, 3 weeks after application
How it was run: (§4)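 Foliage-application test plants come from spot sowing in sterilized diluvial soil under a soil layer of about 1.5 cm, grown at 25° C. to 30° C. in a greenhouse.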

Avena fatua [6] = test: Test Example 4: herbicidal effect by soil treatment (symbol I); settings: application herbicide amount 320 g/ha
How it was run: as §1

Veronica persica = test: Test Example 5: herbicidal effect by foliage application, plastic box (symbol R); settings: 320 g/ha, 3 weeks after application
How it was run: as §3

Chenopodium album = test: Test Example 5: herbicidal effect by foliage application, plastic box (symbol O); settings: 320 g/ha, 3 weeks after application
How it was run: as §3

Apera spica-venti [7] = test: Test Example 4: herbicidal effect by soil treatment (symbol L); settings: application herbicide amount 320 g/ha
How it was run: as §1

beet [8] = test: Test Example 5: effect on crop by foliage application, plastic box (symbol f); settings: 320 g/ha, 3 weeks after application
How it was run: as §4

Galium spurium = test: Test Example 4: herbicidal effect by soil treatment (symbol Q); settings: application herbicide amount 320 g/ha
How it was run: as §1

Apera spica-venti [9] = test: Test Example 5: herbicidal effect by foliage application, plastic box (symbol L); settings: 320 g/ha, 3 weeks after application
How it was run: as §3

SMILES: CON=C(C)CC1CC(O)=C(c2c(C)cc(-c3ccc(OC(F)(F)F)cc3)cc2C)C1=O (mixture of isomers) [6-056]
- N: Amaranthus retroflexus, herbicidal effect grade (Amaranthus retroflexus): 0 (Herbicidal ratio of 5% or lower (almost no effect))
- f: beet, effect on crop grade (beet [1]): 0 (Herbicidal ratio of 5% or lower (almost no effect))
- H: Echinochloa crus-galli var. crus-galli, herbicidal effect grade [2]: 0 (Herbicidal ratio of 5% or lower (almost no effect))
- e: wheat, effect on crop grade (wheat): 0 (Herbicidal ratio of 5% or lower (almost no effect))
- G: Setaria viridis, herbicidal effect (criteria of Test Example 1) (Setaria viridis): 5 (Herbicidal ratio of 90% or more (almost completely withered))
- Herbicidal effect grade, B: Scirpus juncoides (Scirpus juncoides [3]): 0 (Herbicidal ratio of 5% or lower (almost no effect))
- g: rapeseed, effect on crop grade (rapeseed): 0 (Herbicidal ratio of 5% or lower (almost no effect))
- I: Avena fatua, herbicidal effect (criteria of Test Example 1) (Avena fatua [4]): 3 (Herbicidal ratio of 40% or higher and lower than 70%)
- Herbicidal effect grade, B: Scirpus juncoides (Scirpus juncoides [5]): 0 (Herbicidal ratio of 5% or lower (almost no effect))
- d: soybean, effect on crop (criteria of Test Example 1) (soybean): 0 (Herbicidal ratio of 5% or lower (almost no effect))
- I: Avena fatua, herbicidal effect grade (Avena fatua [6]): 0 (Herbicidal ratio of 5% or lower (almost no effect))
- R: Veronica persica, herbicidal effect (criteria of Test Example 1) (Veronica persica): 0 (Herbicidal ratio of 5% or lower (almost no effect))
- O: Chenopodium album, herbicidal effect (criteria of Test Example 1) (Chenopodium album): 3 (Herbicidal ratio of 40% or higher and lower than 70%)
- L: Apera spica-venti, herbicidal effect grade (Apera spica-venti [7]): 0 (Herbicidal ratio of 5% or lower (almost no effect))
- f: beet, effect on crop (criteria of Test Example 1) (beet [8]): 0 (Herbicidal ratio of 5% or lower (almost no effect))
- Q: Galium spurium, herbicidal effect grade (Galium spurium): 0 (Herbicidal ratio of 5% or lower (almost no effect))
- L: Apera spica-venti, herbicidal effect (criteria of Test Example 1) (Apera spica-venti [9]): 3 (Herbicidal ratio of 40% or higher and lower than 70%)

SMILES: CCc1cc(-c2ccc(Cl)cc2)cc(C)c1C1=C(OC(=O)N2CCOCC2)CC(CC(C)=NOC)C1=O (mixture of isomers) [6-064]
- N: Amaranthus retroflexus, herbicidal effect grade (Amaranthus retroflexus): 0 (Herbicidal ratio of 5% or lower (almost no effect))
- f: beet, effect on crop grade (beet [1]): 0 (Herbicidal ratio of 5% or lower (almost no effect))
- H: Echinochloa crus-galli var. crus-galli, herbicidal effect grade [2]: 5 (Herbicidal ratio of 90% or more (almost completely withered))
- e: wheat, effect on crop grade (wheat): 0 (Herbicidal ratio of 5% or lower (almost no effect))
- G: Setaria viridis, herbicidal effect (criteria of Test Example 1) (Setaria viridis): 5 (Herbicidal ratio of 90% or more (almost completely withered))
- Herbicidal effect grade, B: Scirpus juncoides (Scirpus juncoides [3]): 0 (Herbicidal ratio of 5% or lower (almost no effect))
- g: rapeseed, effect on crop grade (rapeseed): 0 (Herbicidal ratio of 5% or lower (almost no effect))
- I: Avena fatua, herbicidal effect (criteria of Test Example 1) (Avena fatua [4]): 5 (Herbicidal ratio of 90% or more (almost completely withered))
- Herbicidal effect grade, B: Scirpus juncoides (Scirpus juncoides [5]): 0 (Herbicidal ratio of 5% or lower (almost no effect))
- d: soybean, effect on crop (criteria of Test Example 1) (soybean): 0 (Herbicidal ratio of 5% or lower (almost no effect))
- I: Avena fatua, herbicidal effect grade (Avena fatua [6]): 0 (Herbicidal ratio of 5% or lower (almost no effect))
- R: Veronica persica, herbicidal effect (criteria of Test Example 1) (Veronica persica): 4 (Herbicidal ratio of 70% or higher and lower than 90%)
- L: Apera spica-venti, herbicidal effect grade (Apera spica-venti [7]): 5 (Herbicidal ratio of 90% or more (almost completely withered))
- f: beet, effect on crop (criteria of Test Example 1) (beet [8]): 0 (Herbicidal ratio of 5% or lower (almost no effect))
- Q: Galium spurium, herbicidal effect grade (Galium spurium): 0 (Herbicidal ratio of 5% or lower (almost no effect))
- L: Apera spica-venti, herbicidal effect (criteria of Test Example 1) (Apera spica-venti [9]): 5 (Herbicidal ratio of 90% or more (almost completely withered))

SMILES: CON=C(C)CC1CC(OCOC(=O)c2ccccc2)=C(c2c(C)cc(-c3ccc(Cl)cc3)cc2C)C1=O (centres unmarked) [6-083]
- N: Amaranthus retroflexus, herbicidal effect grade (Amaranthus retroflexus): 0 (Herbicidal ratio of 5% or lower (almost no effect))
- f: beet, effect on crop grade (beet [1]): 0 (Herbicidal ratio of 5% or lower (almost no effect))
- H: Echinochloa crus-galli var. crus-galli, herbicidal effect grade [2]: 0 (Herbicidal ratio of 5% or lower (almost no effect))
- e: wheat, effect on crop grade (wheat): 0 (Herbicidal ratio of 5% or lower (almost no effect))
- G: Setaria viridis, herbicidal effect (criteria of Test Example 1) (Setaria viridis): 5 (Herbicidal ratio of 90% or more (almost completely withered))
- Herbicidal effect grade, B: Scirpus juncoides (Scirpus juncoides [3]): 4 (Herbicidal ratio of 70% or higher and lower than 90%)
- g: rapeseed, effect on crop grade (rapeseed): 0 (Herbicidal ratio of 5% or lower (almost no effect))
- I: Avena fatua, herbicidal effect (criteria of Test Example 1) (Avena fatua [4]): 5 (Herbicidal ratio of 90% or more (almost completely withered))
- Herbicidal effect grade, B: Scirpus juncoides (Scirpus juncoides [5]): 3 (Herbicidal ratio of 40% or higher and lower than 70%)
- d: soybean, effect on crop (criteria of Test Example 1) (soybean): 0 (Herbicidal ratio of 5% or lower (almost no effect))
- I: Avena fatua, herbicidal effect grade (Avena fatua [6]): 0 (Herbicidal ratio of 5% or lower (almost no effect))
- R: Veronica persica, herbicidal effect (criteria of Test Example 1) (Veronica persica): 4 (Herbicidal ratio of 70% or higher and lower than 90%)
- O: Chenopodium album, herbicidal effect (criteria of Test Example 1) (Chenopodium album): 5 (Herbicidal ratio of 90% or more (almost completely withered))
- L: Apera spica-venti, herbicidal effect grade (Apera spica-venti [7]): 5 (Herbicidal ratio of 90% or more (almost completely withered))
- f: beet, effect on crop (criteria of Test Example 1) (beet [8]): 3 (Herbicidal ratio of 40% or higher and lower than 70%)
- Q: Galium spurium, herbicidal effect grade (Galium spurium): 0 (Herbicidal ratio of 5% or lower (almost no effect))
- L: Apera spica-venti, herbicidal effect (criteria of Test Example 1) (Apera spica-venti [9]): 5 (Herbicidal ratio of 90% or more (almost completely withered))

SMILES: CCc1cc(Br)cc(C)c1C1=C(O)CC(C(C(C)=O)C(=O)OC)C1=O (centres unmarked) [7-001]
- Herbicidal effect grade, N: Amaranthus retroflexus (Amaranthus retroflexus): 0 (Herbicidal ratio of 5% or lower (almost no effect))
- Effect on crop grade, f: beet (beet [1]): 0 (Herbicidal ratio of 5% or lower (almost no effect))
- Herbicidal effect grade, H: Echinochloa crus-galli var. crus-galli [2]: 4 (Herbicidal ratio of 70% or higher and lower than 90%)
- Effect on crop grade, e: wheat (wheat): 0 (Herbicidal ratio of 5% or lower (almost no effect))
- G: Setaria viridis, herbicidal effect (criteria of Test Example 1) (Setaria viridis): 3 (Herbicidal ratio of 40% or higher and lower than 70%)
- Herbicidal effect grade, B: Scirpus juncoides (Scirpus juncoides [3]): 0 (Herbicidal ratio of 5% or lower (almost no effect))
- Effect on crop grade, g: rapeseed (rapeseed): 0 (Herbicidal ratio of 5% or lower (almost no effect))
- I: Avena fatua, herbicidal effect (criteria of Test Example 1) (Avena fatua [4]): 3 (Herbicidal ratio of 40% or higher and lower than 70%)
- Herbicidal effect grade, B: Scirpus juncoides (Scirpus juncoides [5]): 0 (Herbicidal ratio of 5% or lower (almost no effect))
- d: soybean, effect on crop (criteria of Test Example 1) (soybean): 0 (Herbicidal ratio of 5% or lower (almost no effect))
- Herbicidal effect grade, I: Avena fatua (Avena fatua [6]): 3 (Herbicidal ratio of 40% or higher and lower than 70%)
- R: Veronica persica, herbicidal effect (criteria of Test Example 1) (Veronica persica): 0 (Herbicidal ratio of 5% or lower (almost no effect))
- Herbicidal effect grade, L: Apera spica-venti (Apera spica-venti [7]): 0 (Herbicidal ratio of 5% or lower (almost no effect))
- f: beet, effect on crop (criteria of Test Example 1) (beet [8]): 0 (Herbicidal ratio of 5% or lower (almost no effect))
- Herbicidal effect grade, Q: Galium spurium (Galium spurium): 0 (Herbicidal ratio of 5% or lower (almost no effect))
- L: Apera spica-venti, herbicidal effect (criteria of Test Example 1) (Apera spica-venti [9]): 3 (Herbicidal ratio of 40% or higher and lower than 70%)

SMILES: CC(=O)CC1CC(O)=C(c2c(C)cc(-c3ccc(C)cc3)cc2C)C1=O (centres unmarked) [7-007]
- Herbicidal effect grade, N: Amaranthus retroflexus (Amaranthus retroflexus): 0 (Herbicidal ratio of 5% or lower (almost no effect))
- Effect on crop grade, f: beet (beet [1]): 0 (Herbicidal ratio of 5% or lower (almost no effect))
- Herbicidal effect grade, H: Echinochloa crus-galli var. crus-galli [2]: 5 (Herbicidal ratio of 90% or more (almost completely withered))
- Effect on crop grade, e: wheat (wheat): 0 (Herbicidal ratio of 5% or lower (almost no effect))
- G: Setaria viridis, herbicidal effect (criteria of Test Example 1) (Setaria viridis): 5 (Herbicidal ratio of 90% or more (almost completely withered))
- Herbicidal effect grade, B: Scirpus juncoides (Scirpus juncoides [3]): 1 (Herbicidal ratio of 5% or higher and lower than 20%)
- Effect on crop grade, g: rapeseed (rapeseed): 0 (Herbicidal ratio of 5% or lower (almost no effect))
- I: Avena fatua, herbicidal effect (criteria of Test Example 1) (Avena fatua [4]): 4 (Herbicidal ratio of 70% or higher and lower than 90%)
- Herbicidal effect grade, B: Scirpus juncoides (Scirpus juncoides [5]): 0 (Herbicidal ratio of 5% or lower (almost no effect))
- d: soybean, effect on crop (criteria of Test Example 1) (soybean): 0 (Herbicidal ratio of 5% or lower (almost no effect))
- Herbicidal effect grade, I: Avena fatua (Avena fatua [6]): 0 (Herbicidal ratio of 5% or lower (almost no effect))
- R: Veronica persica, herbicidal effect (criteria of Test Example 1) (Veronica persica): 0 (Herbicidal ratio of 5% or lower (almost no effect))
- O: Chenopodium album, herbicidal effect (criteria of Test Example 1) (Chenopodium album): 2 (Herbicidal ratio of 20% or higher and lower than 40%)
- Herbicidal effect grade, L: Apera spica-venti (Apera spica-venti [7]): 5 (Herbicidal ratio of 90% or more (almost completely withered))
- f: beet, effect on crop (criteria of Test Example 1) (beet [8]): 0 (Herbicidal ratio of 5% or lower (almost no effect))
- Herbicidal effect grade, Q: Galium spurium (Galium spurium): 0 (Herbicidal ratio of 5% or lower (almost no effect))
- L: Apera spica-venti, herbicidal effect (criteria of Test Example 1) (Apera spica-venti [9]): 5 (Herbicidal ratio of 90% or more (almost completely withered))
